Results on 6 molecules are retold here after ChEMBL document CHEMBL5321207, “Design, synthesis and biological characterization of novel activators of the TrkB neurotrophin receptor” (Eur J Med Chem, 2023).

Data set [1] concerns SH-SY5Y. Description: Induction of neurite outgrowth in retinoid acid-treated human SH-SY5Y cells at 10 nM incubated for 2 days by fluorescence microscopy relative to retinoid acid. The note with it: time 2 day. It counts as functional.
A short description of data set [2]: Chromatographic hydrophobicity index, log D of compound at pH 7.4 by HPLC analysis. The conditions noted are these: buffer. It counts as physicochemical.
Data set [3] deals with Cortical neurone. Nature of the data set: Neurotoxicity against Sprague-Dawley rat primary cortical neurons at 1 uM incubated for 24 hrs by HCS analysis. It counts as functional, cell-based.
The target in data set [4] is BDNF/NT-3 growth factors receptor (Mus musculus) (UniProt P15209). Description: Induction of TrkB phosphorylation in mouse primary cortical astrocytes assessed as Akt phosphorylation at 1 uM incubated for 20 mins followed by serum deprivation for 6 hrs by Western blot analysis. Format: cell-based. The note with it: Cortex, filed as activator, time 6.33 hrs. On the technique in general: A western blot detects proteins with antibodies after separation by electrophoresis.

In data set [5] the test system is SH-SY5Y. Description: Induction of neurite outgrowth in retinoid acid-treated human SH-SY5Y cells at 100 nM incubated for 2 days by fluorescence microscopy relative to retinoid acid. The note with it: time 2 day. It counts as functional.
Data set [6] is described as follows: Chromatographic hydrophobicity index of compound at pH 7.4 by HPLC analysis. Format: physicochemical.
The test system of the next data set is Hepatocyte. Description: Hepatotoxicity against mouse hepatocytes at 1 uM incubated for 24 hrs by HCS analysis. It counts as functional, cell-based.
Data set [7] addresses BDNF/NT-3 growth factors receptor (Mus musculus) (UniProt P15209). Description: Induction of TrkB phosphorylation in mouse primary cortical astrocytes at 1 uM incubated for 20 mins followed by serum deprivation for 6 hrs by Western blot analysis. Format: cell-based. The conditions noted are these: Cortex, filed as activator, time 6.33 hrs.
Data set [8] deals with SH-SY5Y. Description: Induction of neurite outgrowth in retinoid acid-treated human SH-SY5Y cells at 1000 nM incubated for 2 days by fluorescence microscopy relative to retinoid acid. Format: functional. The conditions noted are these: time 2 day.
For data set [9], the target named is BDNF/NT-3 growth factors receptor (Mus musculus) (UniProt P15209). Description: Induction of TrkB phosphorylation transfected in mouse NIH3T3 cells at 1 uM incubated for 20 mins followed by serum deprivation for 6 hrs by Western blot analysis. Format: cell-based. The conditions noted are these: filed as activator, time 6.33 hrs.
For data set [10], the system named is Primary spinal motor neuron. Description: Neuroprotective activity against glutamate-treated Wistar rat primary spinal motor neurons assessed as neuronal survival pretreated for 1 hr followed by glutamate treatment for 20 mins and subsequent washout of compound and glutamate and re-treatment of compound for 48 hrs by imaging analysis. Format: functional, cell-based. The conditions noted are these: dose 0.5-1000 nM, time 49.33 hrs.

Data set [11] has as its system Primary spinal motor neuron. Nature of the data set: Neuroprotective activity against glutamate-treated Wistar rat primary spinal motor neurons assessed as increase in neurite network pretreated for 1 hr followed by glutamate treatment for 20 mins and subsequent washout of compound and glutamate and re-treatment of compound for 48 hrs by imaging analysis. Format: functional, cell-based. The conditions noted are these: dose 0.5-1000 nM, time 49.33 hrs.

A further data set has as its system NIH3T3. Description: Cytotoxicity against serum-starved mouse NIH3T3 cells transfected with TrkB assessed as cell death at 1 uM measured after 24 hrs by CellTox green dye/Hoechst staining based microscopy. The conditions noted are these: nih3t3, 24 h. Format: toxicity.
The subject of data set [12] is Primary spinal motor neuron. Nature of the data set: Neuroprotective activity against glutamate-treated Wistar rat primary spinal motor neurons assessed as decrease in TDP43 accumulation pretreated for 1 hr followed by glutamate treatment for 20 mins and subsequent washout of compound and glutamate and re-treatment of compound for 48 hrs by imaging analysis. It counts as functional, cell-based. The conditions noted are these: dose 0.5-1000 nM, time 49.33 hrs.

The subject of data set [13] is Cortical neurone. Nature of the data set: Neurotoxicity against Sprague-Dawley rat primary cortical neurons at 10 uM incubated for 24 hrs by HCS analysis. It counts as functional, cell-based.
Data set [14] has as its system Cortical neurone. Description: Neurotoxicity against Sprague-Dawley rat primary cortical neurons at 100 uM incubated for 24 hrs by HCS analysis. Format: functional, cell-based.

The chromatographic logD is a lipophilicity value derived from retention on a column.

Calls of active or inactive are those of the source. The calls are words filed in the database; no cut-off is given here.

Sequence of BDNF/NT-3 growth factors receptor (Mus musculus) (P15209 whole entry): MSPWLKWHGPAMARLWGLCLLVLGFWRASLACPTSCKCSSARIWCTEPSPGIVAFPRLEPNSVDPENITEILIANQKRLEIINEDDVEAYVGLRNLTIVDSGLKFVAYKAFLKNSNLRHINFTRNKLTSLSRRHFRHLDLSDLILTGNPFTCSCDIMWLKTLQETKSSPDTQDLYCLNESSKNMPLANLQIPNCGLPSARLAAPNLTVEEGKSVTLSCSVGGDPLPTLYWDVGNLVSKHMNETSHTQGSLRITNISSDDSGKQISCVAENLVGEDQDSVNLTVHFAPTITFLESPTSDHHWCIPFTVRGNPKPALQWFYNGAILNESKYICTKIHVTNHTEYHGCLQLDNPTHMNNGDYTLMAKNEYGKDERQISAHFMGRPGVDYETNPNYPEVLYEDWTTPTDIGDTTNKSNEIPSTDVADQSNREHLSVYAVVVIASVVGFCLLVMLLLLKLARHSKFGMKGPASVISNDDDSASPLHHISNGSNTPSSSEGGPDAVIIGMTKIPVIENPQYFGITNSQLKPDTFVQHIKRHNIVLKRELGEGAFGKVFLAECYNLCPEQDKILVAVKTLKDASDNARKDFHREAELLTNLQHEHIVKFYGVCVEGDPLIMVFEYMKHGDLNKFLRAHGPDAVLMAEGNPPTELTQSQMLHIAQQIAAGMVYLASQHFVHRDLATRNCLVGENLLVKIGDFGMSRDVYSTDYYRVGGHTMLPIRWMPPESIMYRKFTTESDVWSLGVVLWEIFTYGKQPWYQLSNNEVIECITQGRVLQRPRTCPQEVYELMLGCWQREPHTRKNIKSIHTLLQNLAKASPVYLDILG

As for `O=C(NCCO)c1cc(C(=O)NCCO)cc(C(=O)NCCN2CCOCC2)c1`, the Activity in the data set on SH-SY5Y [1] was 90.19%; with SH-SY5Y [5], 107.68%; in the data set with SH-SY5Y [8], 114.91%. The chromatographic logD in data set [2] is -0.31. For the same molecule, the result in the data set with Cortical neurone [3] and with Hepatocyte was inactive. Also, the outcome in data set [4] and in data set [7] was Active. Also, the CHI in data set [6] amounted to 18.1.
Take `O=C(NCCO)c1cc(C(=O)NCCO)cc(C(=O)NCC2CCN(CC3CCCCC3)CC2)c1`: the Activity in the data set with SH-SY5Y [1] is 183.59%; in data set [10] it was “Dose-Dependent Effect”; in data set [11], “Dose-Dependent Effect”; in the data set on NIH3T3, “Non-Toxic”; in the data set on SH-SY5Y [5], 181.13%; in data set [12], “Dose-Dependent Effect”. The Activity in the data set on SH-SY5Y [8] is reported as 113.54%. Also, the outcome in data set [9], in [4] and in [7] was Active. This molecule registered a chromatographic logD in data set [2] of 0.48. The CHI in data set [6] is 33.4.
On to `O=C(NCCO)c1cc(C(=O)NCCO)cc(C(=O)NCCO)c1`, for which the result in the data set with Cortical neurone [13], with Cortical neurone [3] and in the data set with Cortical neurone [14] was inactive. In addition, the Activity with SH-SY5Y [1] is 120.18%; with NIH3T3, “Non-Toxic”; with SH-SY5Y [5], 124.7%; in the data set on SH-SY5Y [8] it was 113.86%. Besides, the outcome in data set [9], in [4] and in [7] was Active. Besides, the chromatographic logD in data set [2] is -0.53. In data set [6], the CHI is 13.8.
For the molecule `CC[C@H](C)[C@H](N)C(=O)NCCNC(=O)c1cc(C(=O)NCCO)cc(C(=O)NCCO)c1.Cl`, the outcome in the data set on Cortical neurone [13] and with Cortical neurone [3] was inactive. Also, the Activity in the data set with SH-SY5Y [1] is 139.04%; in the data set with SH-SY5Y [5], 158.93%; in the data set with SH-SY5Y [8] it was 143.82%. In data set [2], this molecule displayed a chromatographic logD of -0.24. The same molecule displayed a CHI in data set [6] of 19.5.
Regarding `O=C(NCCO)c1cc(C(=O)NCCO)cc(C(=O)NCCCN2CCOCC2)c1`, the results for the Activity in the data set on SH-SY5Y [1], in the data set on SH-SY5Y [5] and in the data set with SH-SY5Y [8] were 121.11%, 127.21% and 122.77%, respectively. In data set [2], the chromatographic logD is -0.28. Moreover, the result in the data set on Cortical neurone [3] was inactive. Also, the CHI in data set [6] was 18.7.
`CCCN1CCC(CNC(=O)c2cc(C(=O)NCCO)cc(C(=O)NCCO)c2)CC1`: the outcome in the data set on Cortical neurone [13], in the data set on Cortical neurone [3], with Cortical neurone [14] and in the data set on Hepatocyte was inactive. In addition, the Activity is 97.67% with SH-SY5Y [1], “Non-Toxic” in the data set with NIH3T3, 102.23% in the data set on SH-SY5Y [5] and 104.04% in the data set with SH-SY5Y [8]. For the same molecule, in data set [9], the result was Active. In data set [2], this molecule came in with a chromatographic logD of -0.34. The molecule also showed a CHI in data set [6] of 17.6.
